Like-named read-outs stand apart in the source and are kept apart here.
Legend:
[1] = molecular target: T1, mouse RORγ (Mus musculus, UniProt P51450); test: In vitro assay of inhibitory effect against RORγ transcriptional activity (GAL4-mRORγ LBD luciferase reporter gene assay in CHO cells); type: cell-based; conditions: for mRORγ luciferase activity, %-of-control: vehicle-control 0.2% DMSO alone = 100%
T1 construct: mouse RORγ, from Ile251 to Lys516; expressed in transfected cells; host or cells: CHO cells (Chinese hamster ovary), transient co-transfection with pG5-Luc
T1 sequence (P51450 251-516): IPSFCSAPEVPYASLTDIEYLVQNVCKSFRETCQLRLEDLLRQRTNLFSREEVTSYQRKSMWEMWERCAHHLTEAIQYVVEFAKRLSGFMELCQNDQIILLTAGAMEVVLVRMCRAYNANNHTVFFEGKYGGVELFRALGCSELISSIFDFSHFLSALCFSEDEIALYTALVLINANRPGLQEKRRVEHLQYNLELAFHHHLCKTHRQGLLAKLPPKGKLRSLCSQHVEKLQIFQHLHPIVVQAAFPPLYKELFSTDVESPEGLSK
Procedure, shortened: (§1)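 Transcriptional activity of human or mouse RORγ LBD, tethered to the GAL4 DNA-binding domain, is monitored by a GAL4-dependent firefly luciferase reporter in transiently transfected CHO cells. Test articles are incubated for 2 days; values are %-of-control or fitted EC50.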

[2] = molecular target: T2, human RORγ (Homo sapiens, UniProt P51449); test: In vitro assay of inhibitory effect against RORγ transcriptional activity (GAL4-hRORγ LBD luciferase reporter gene assay in CHO cells); type: cell-based; conditions: for hRORγ luciferase activity, %-of-control: vehicle-control 0.2% DMSO alone = 100%
T2 construct: human RORγ, from Ser253 to Lys518; expressed in transfected cells; host or cells: CHO cells (Chinese hamster ovary), transient co-transfection with pG5-Luc
T2 sequence (P51449 253-518): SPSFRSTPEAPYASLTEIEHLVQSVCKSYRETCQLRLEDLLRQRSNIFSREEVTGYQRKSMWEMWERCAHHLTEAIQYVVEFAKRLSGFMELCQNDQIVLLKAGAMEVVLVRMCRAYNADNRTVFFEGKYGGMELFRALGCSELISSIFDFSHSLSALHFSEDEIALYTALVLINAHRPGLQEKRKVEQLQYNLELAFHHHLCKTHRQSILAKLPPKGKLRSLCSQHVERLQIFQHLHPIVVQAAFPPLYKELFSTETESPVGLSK
Procedure, shortened: as §1

[3] = GAL4-mRORγ LBD / pG5-Luc in CHO cells, 2 days incubation
[4] = value in parentheses beside the > EC50 bound
[5] = GAL4-hRORγ LBD / pG5-Luc in CHO cells, 2 days incubation
[6] = GAL4-mRORγ LBD luciferase reporter, CHO cells, read-out: LUC EC50 mRORγ
[7] = GAL4-hRORγ LBD luciferase reporter, CHO cells, read-out: LUC EC50 hRORγ
[8] = value in parentheses beside the EC50 bound

Structure (SMILES)	EC50 [1, 3] [nM]	EC50 [2, 5] [nM]	EC50 [1, 6] [nM]	EC50 [2, 7] [nM]	further results
CC(C)(C)CCc1ccc([C@]2(C)NC(=O)N(C3CCOCC3)C=C2[C@H]2C[C@@H](C(=O)O)C2)cc1Cl [Example 199]			136	70	
CC(C)C1=CN([C@H]2C[C@H](C(=O)O)C2)C(=O)N[C@]1(C)c1cc(Cl)c(CCC(C)(C)C)cc1F [Example 103]	> 3200	> 3200			mRORγ luciferase activity, %-of-control [1, 4]: (50%); hRORγ luciferase activity, %-of-control [2, 4]: (65%)
CC(C)C1=CN([C@@H](C)CC(=O)O)C(=O)N[C@@]1(C)c1ccc(CCC(C)(C)C)c(Cl)c1 [Example 247]			16	18	
CC(C)(C)CCc1ccc([C@]2(C)NC(=O)N(CCCC(=O)O)C=C2C2CCC2)cc1Cl [Example 59]	20	12			
CC(C)C1=CN(CC2(C(=O)O)CC2)C(=O)N[C@@]1(C)c1ccc(CCC(C)(C)C)c(Cl)c1 [Example 98]	18	13			
CC(C)OCc1ccc([C@]2(C)NC(=O)N(CCC(=O)O)C=C2C(C)C)cc1Cl [Example 157]	255	497			
CC(C)C1=CN(CCC(=O)O)C(=O)N[C@@]1(C)c1ccc(CCC2CC(C)(C)C2)c(Cl)c1 [Example 142]	49	> 512			hRORγ luciferase activity, %-of-control [2, 4]: (102%)
CC(C)C1=CN(CCC(=O)O)C(=O)N[C@]1(C)c1ccc(C2CCCCC2)c(Cl)c1 [Example 135]	> 8000	> 8000			mRORγ luciferase activity, %-of-control [1, 4]: (84%); hRORγ luciferase activity, %-of-control [2, 4]: (90%)
CC(C)C1=CN(CCC(=O)O)C(=O)N[C@@]1(C)c1cc(F)c(OCC(C)(C)C)c(Cl)c1 [Example 164]	11	18			
CC(C)C1=CN(C2CC3(CC(C(=O)O)C3)C2)C(=O)N[C@@]1(C)c1ccc(CCC(C)(C)C)c(Cl)c1 (single isomer, unassigned) [Example 232]			19	15	
CC(C)(C)CCc1ccc([C@@]2(C)NC(=O)N(CCCC(=O)O)C=C2C2CCOCC2)cc1Cl [Example 91]	1150	539			
CC(C)C1=CN(CCC(=O)O)C(=O)N[C@@]1(C)c1ccc(CCC(C)(C)O)c(Cl)c1 [Example 293]			1020	1100	
CC(C)C1=CN(C2CNCC2C(=O)O)C(=O)N[C@@]1(C)c1ccc(CCC(C)(C)C)c(Cl)c1 (single isomer, unassigned) [Example 238]			666	715	
CC(C)C1=CN(CCC(=O)O)C(=O)N[C@@]1(C)c1ccc(CCC2CCCC2)c(Cl)c1 [Example 120]	14	61			
CC(C)CCC1=CN(CCCC(=O)O)C(=O)N[C@@]1(C)c1ccc(CCC(C)(C)C)c(Cl)c1 [Example 44]	90	51			
CC(C)C1=CN(C23CC(C(=O)O)(C2)C3)C(=O)N[C@@]1(C)c1ccc(CCC(C)(C)C)c(C(F)(F)F)c1 [Example 322]			19	21	
CC(C)C1=CN(CCC(=O)O)C(=O)N[C@@]1(C)c1ccc(OCC(C)(C)C)c(Cl)c1 [Example 126]	27	37			

Now from value to compound, other results behind:

EC50 [1, 3] [nM]	EC50 [2, 5] [nM]	EC50 [1, 6] [nM]	EC50 [2, 7] [nM]	Structure (SMILES)	further results
> 8000	> 8000			CC(C)C1=CN(CCC(=O)O)C(=O)N[C@]1(C)c1ccc(C2CCCC2)c(Cl)c1 [Example 155]	mRORγ luciferase activity, %-of-control [1, 4]: (81%); hRORγ luciferase activity, %-of-control [2, 4]: (83%)
		94	86	CC(C)C1=CN(CCC(=O)O)C(=O)N[C@@]1(C)c1ccc(CC(O)C(C)(C)C)c(Cl)c1 (single isomer, unassigned) [Example 311]	
13	7			CC(C)C1=CN(CCc2ccc(C(=O)O)cc2)C(=O)N[C@@]1(C)c1ccc(CCC(C)(C)C)c(Cl)c1 [Example 50]	
15	11			CC(C)CC1=CN(CCCC(=O)O)C(=O)N[C@@]1(C)c1ccc(CCC(C)(C)C)c(Cl)c1 [Example 38]	
		14	19	COCCC1=CN(C23CCC(C(=O)O)(C2)C3)C(=O)N[C@@]1(C)c1ccc([C@H]2C[C@@H](C(C)C)C2)c(Cl)c1 [Example 330]	
		71	> 3200	CC(C)C1=CN(CCC(=O)O)C(=O)N[C@@]1(C)c1ccc([C@H]2C[C@@H](CC(C)(C)C)C2)c(Cl)c1 [Example 309]	hRORγ luciferase activity, %-of-control [2, 8]: (63%)
		> 8000	> 8000	COc1cc([C@@]2(C)NC(=O)N(CCC(=O)O)C=C2C(C)C)ccc1CCC(C)(C)C [Example 212]	mRORγ luciferase activity, %-of-control [1, 8]: (81%); hRORγ luciferase activity, %-of-control [2, 8]: (68%)
< 32	47			CC(C)C1=CN(CCC(=O)O)C(=O)N[C@@]1(C)c1ccc(CCCC(F)(F)F)c(Cl)c1 [Example 129]	
		366	134	CC(C)C1=CN(c2cc(C(=O)O)on2)C(=O)N[C@@]1(C)c1ccc(CCC(C)(C)C)c(Cl)c1 [Example 295]	
21	13			CCC(C)C1=CN(CCCC(=O)O)C(=O)NC1(C)c1ccc(CCC(C)(C)C)c(Cl)c1 (single isomer, unassigned) [Example 34]	
24	21			CC(C)C1=CN(CC(C)(C)CC(=O)O)C(=O)N[C@@]1(C)c1ccc(CCC(C)(C)C)c(Cl)c1 [Example 36]	
		56	131	COc1cc([C@]2(C)NC(=O)N(CCC(=O)O)C=C2C(C)C)ccc1CCC(C)(C)C [Example 213]	
15	8			CC(C)C1=CN(CCC(=O)O)C(=O)N[C@@]1(C)c1ccc(C2CC2C(C)(C)C)c(Cl)c1 (single isomer, unassigned) [Example 169]	
		123	343	CC(C)C1=CN(CCC(=O)O)C(=O)N[C@@]1(C)c1ccc(SC2CCCC2)c(Cl)c1 [Example 224]	
23	18			CC(C)C1=CN(CCC(=O)O)C(=O)NC1(C)c1ccc(C2=CC(C)(C)CCC2)c(Cl)c1 (single isomer, unassigned) [Example 151]	
18	15			CC1=C(C(C)C)C(C)(c2ccc(CCC(C)(C)C)c(Cl)c2)NC(=O)N1CCCC(=O)O (racemic) [Example 90]	
32	18			COC(=O)[C@H]1C[C@H](N2C=C(C(C)(C)CCC(=O)O)C(C)(c3ccc(CCC(C)(C)C)c(Cl)c3)NC2=O)C1 (single isomer, unassigned) [Example 181]	
		14	17	COCCC1=CN(c2ccc(C(=O)O)cc2)C(=O)N[C@@]1(C)c1ccc([C@H]2C[C@@H](C(C)C)C2)c(Cl)c1 [Example 318]	
		6	3	COCC(C)C1=CN(CCC(=O)O)C(=O)N[C@@]1(C)c1ccc(CCC(C)(C)C)c(Cl)c1 (single isomer, unassigned) [Example 305]	
60	88			CC(C)(C)COc1ccc(C2NC(=O)N(CCCC(=O)O)C=C2C(C)(C)C)cc1Cl (racemic) [Example 1]	
		52	109	C[C@@]1(c2ccc(OCCC3CC3)c(Cl)c2)NC(=O)N(c2ccc(C(=O)O)cc2)C=C1C1CC(F)(F)C1 [Example 350]	
422	443			CC(C)C1=CN(CC[C@@H](O)C(=O)O)C(=O)N[C@]1(C)c1ccc(CCC(C)(C)C)c(Cl)c1 [Example 88]	
